The nature of experiment [1]: Antiproliferative activity against human ALMC2 cells after 72 hrs by Cell TiterGlo assay. It is filed as functional, cell-based. The note with it: ALMC2, 72 h. A general note: In ATP-based viability assays light output follows the ATP content of the culture.
Experiment [2] is described as follows: Antiproliferative activity against human ALMC1 cells after 72 hrs by Cell TiterGlo assay. It is filed as functional, cell-based. The note with it: ALMC1, 72 h.
A further experiment deals with K562. The experiment is described as follows: Antiproliferative activity against human K562 cells after 72 hrs by Cell TiterGlo assay. It is filed as functional, cell-based. The note with it: K562, 72 h.
Experiment [3] is described as follows: Inhibition of Bcl-2 (residues i_207 A96T/G110R, delta 35-91, replaced with Bcl-xL35-50) (unknown origin) using FITC-AHx-GQVGRQLAIIGDDINR-NH2 as substrate after 90 mins by fluorescence polarization anisotropy competition assay. Set-up: species or system Homo sapiens. (In general: In fluorescence polarisation assays a small probe gives low polarisation when free and higher when bound to something large.)

For experiment [4], the target named is T1, Induced myeloid leukemia cell differentiation protein Mcl-1 (Homo sapiens, UniProt Q07820). The experiment is described as follows: Inhibition of recombinant Mcl-1 (residues 172-327) (unknown origin) using FITC-AHx-GQVGRQLAIIGDDINR-NH2 as substrate after 90 mins by fluorescence polarization anisotropy competition assay.
Experiment [5] in a line: Antiproliferative activity against human OPM2 cells after 72 hrs by Cell TiterGlo assay. It counts as functional, cell-based. To be noted: OPM-2, 72 h.
Experiment [6] in a line: Antiproliferative activity against human NCI-H929 cells after 72 hrs by Cell TiterGlo assay. It counts as functional, cell-based. The note with it: NCI-H929, 72 h.
The target of experiment [7] is T1, Induced myeloid leukemia cell differentiation protein Mcl-1. The experiment is described as follows: Inhibition of recombinant Mcl-1 (residues 172-327) (unknown origin) using FITC-AHx-EARIAQELRRIGDEFNETYTR-NH2 as substrate after 90 mins by fluorescence polarization anisotropy competition assay.
Experiment [8] can be described thus: Inhibition of Bcl-xL (residues 1-209, loop 45 to 86 deleted) (unknown origin) using FITC-AHx-GQVGRQLAIIGDDINR-NH2 as substrate after 90 mins by fluorescence polarization anisotropy competition assay. Set-up: species or system Homo sapiens.

Structures are written as SMILES. Where only a bound is given, the exact number is not on record here.

Six compounds from ChEMBL document CHEMBL3769390, “Inhibitors of the Antiapoptotic Myeloid Cell Leukemia-1 (Mcl-1) May Provide Effective Treatment for Cancer” (ACS Med Chem Lett, 2015) can be followed below.

Broadly, the IC50 is the concentration that gives 50% inhibition. For orientation: Ki means a measure of affinity in units of concentration, obtained from inhibition or displacement.

T1 sequence (Q07820 whole entry, the tested form may be a part): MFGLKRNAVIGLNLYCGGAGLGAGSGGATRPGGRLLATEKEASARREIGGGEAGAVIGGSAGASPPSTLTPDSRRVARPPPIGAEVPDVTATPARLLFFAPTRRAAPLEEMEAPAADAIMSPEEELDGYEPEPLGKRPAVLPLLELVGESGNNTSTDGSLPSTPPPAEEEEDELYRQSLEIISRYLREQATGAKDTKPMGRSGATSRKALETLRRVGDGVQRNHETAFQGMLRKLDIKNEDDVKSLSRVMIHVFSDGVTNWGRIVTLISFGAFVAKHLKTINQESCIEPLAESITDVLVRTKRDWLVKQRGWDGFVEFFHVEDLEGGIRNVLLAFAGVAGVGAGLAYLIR

With `Cc1cc(OCCCc2c3n(c4c(-c5c(C)nn(C)c5C)cccc24)CCN(Cc2cccc(C(=O)O)c2)C3=O)cc(C)c1Cl`, the IC50 in experiment [1] came out at 33.9 µM; in [2], 13.1 µM; in the experiment with K562, 40 µM; in experiment [5] it was 16.3 µM; in [6], 15 µM. The Ki in experiment [3] was 6.44 µM; in experiment [4], < 0.007 µM; in [7] it was < 0.05 µM; in experiment [8] it was 2.2 µM.
Take `Cc1cc(OCCCc2c3n(c4c(-c5c(C)nn(C)c5C)c(Cl)ccc24)CCCN(c2cccc(C(=O)O)c2)C3=O)cc(C)c1Cl`: the IC50 in experiment [1] was 20.8 µM; in [2], 12 µM; with K562 it was 23.2 µM; in experiment [6], 6.3 µM. This compound returned a Ki in [8] of 1.9 µM.
For the compound `Cc1cc(OCCCc2c(C(=O)NC(C)(C)C)[nH]c3ccccc23)cc(C)c1Cl`, in experiment [7], the Ki was 1 µM.
Same read-out and setting: next, `Cc1cc(OCCCc2c(C(=O)Nc3ccc(C#N)cc3)[nH]c3c(-c4c(C)nn(C)c4C)c(Cl)ccc23)cc(C)c1Cl`: 0.051 µM.
Regarding `Cc1cc(OCCCc2c(C(=O)NCc3cc(C(=O)O)n(C)c3)[nH]c3c(-c4c(C)nn(C)c4C)cccc23)cc(C)c1Cl`, the Ki in experiment [3] was > 100 µM; in experiment [7], < 0.05 µM; in [8], 3.54 µM.
As to `Cc1cc(OCCCc2c(C(=O)NCc3cc(C(=O)O)ccn3)[nH]c3c(-c4c(C)nn(C)c4C)cccc23)cc(C)c1Cl`, the Ki amounted to 27 µM in experiment [3] and 7.9 µM in experiment [8].
